Source: PMC8677766 (Nature Communications, 2021)

Biological target: T1, hRpn13 (Homo sapiens, UniProt Q16186)
T1 construct: gene ADRM1; hRpn13 Pru (1–150)
Test: ITC; NMR structure; 2D NMR; LC-MS adduct; tryptophan quenching
Format: binding

T1 sequence (Q16186 1-150): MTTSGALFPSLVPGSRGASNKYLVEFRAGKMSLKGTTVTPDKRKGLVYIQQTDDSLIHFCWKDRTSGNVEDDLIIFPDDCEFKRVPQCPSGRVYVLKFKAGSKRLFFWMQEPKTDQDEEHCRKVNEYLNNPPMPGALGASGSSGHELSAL

Kd: 1.48 ± 0.52 µM
SMILES: Cc1ccc(C(=O)Nc2cccc(/C=C(\C#N)C(=O)Nc3ccccc3C(=O)O)c2)cc1 [XL5]
